Results reported in patent US20210046195A1, “FORMULATION AND METHOD OF PREPARATION” (GE HEALTHCARE AS, priority 2018, published 2021).
Bridge positions count the residues as written; N and C are the ends. Cy5∗∗ = not defined here

What was measured:
mouse cMet/Fc chimera = target: T1, mouse cMet/Fc chimera (Mus musculus, UniProt P16056); test: In vitro fluorescence polarisation assay, mouse cMet; type: binding; conditions: dye-labelled peptide 20 nM; mouse cMet/Fc chimera 0-150 nM (tested range)
T1 construct: Fc (immunoglobulin Fc fusion partner); purchased R&D Systems
T1 sequence (P16056 with tags, fused parts or gaps limits assumed): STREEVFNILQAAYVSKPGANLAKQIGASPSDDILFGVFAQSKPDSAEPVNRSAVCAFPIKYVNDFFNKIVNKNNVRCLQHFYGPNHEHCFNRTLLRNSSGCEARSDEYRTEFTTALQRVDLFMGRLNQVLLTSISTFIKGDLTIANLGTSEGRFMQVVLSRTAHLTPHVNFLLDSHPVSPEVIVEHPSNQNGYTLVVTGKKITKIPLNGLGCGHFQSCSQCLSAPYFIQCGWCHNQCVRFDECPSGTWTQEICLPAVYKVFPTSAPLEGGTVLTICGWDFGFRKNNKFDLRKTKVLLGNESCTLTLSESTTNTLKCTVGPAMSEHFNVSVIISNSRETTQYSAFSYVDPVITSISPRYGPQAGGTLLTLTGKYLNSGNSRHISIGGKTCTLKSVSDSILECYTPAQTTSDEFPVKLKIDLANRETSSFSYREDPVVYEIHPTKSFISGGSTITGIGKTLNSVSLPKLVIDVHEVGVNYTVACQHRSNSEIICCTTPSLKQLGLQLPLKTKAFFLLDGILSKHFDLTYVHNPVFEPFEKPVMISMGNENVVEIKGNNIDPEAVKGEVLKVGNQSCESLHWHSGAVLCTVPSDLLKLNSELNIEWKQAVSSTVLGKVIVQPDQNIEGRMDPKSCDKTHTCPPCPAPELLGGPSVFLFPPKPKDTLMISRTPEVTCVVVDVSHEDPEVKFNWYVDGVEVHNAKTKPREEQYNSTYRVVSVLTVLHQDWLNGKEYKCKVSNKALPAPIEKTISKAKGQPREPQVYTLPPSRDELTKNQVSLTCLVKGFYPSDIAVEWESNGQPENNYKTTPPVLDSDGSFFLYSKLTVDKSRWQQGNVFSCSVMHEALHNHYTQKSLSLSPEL
T1 sequence (P16056 25-306 limits assumed, change not shown): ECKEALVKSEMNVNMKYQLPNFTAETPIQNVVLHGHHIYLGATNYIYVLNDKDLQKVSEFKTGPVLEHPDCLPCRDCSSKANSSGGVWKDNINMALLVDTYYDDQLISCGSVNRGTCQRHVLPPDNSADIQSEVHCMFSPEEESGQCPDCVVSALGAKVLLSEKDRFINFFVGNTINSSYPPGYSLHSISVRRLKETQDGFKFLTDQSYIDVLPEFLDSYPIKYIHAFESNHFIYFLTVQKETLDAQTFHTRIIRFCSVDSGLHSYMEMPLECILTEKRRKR
Experimental: The principle of the fluorescence polarisation method can briefly be described as follows:
Monochromatic light passes through a […] polarizing filter and excites fluorescent molecules in the sample. Only those molecules that oriented properly in the vertically polarized plane adsorb light, become excited, and subsequently emit light. The emitted light is measured in both horizontal and vertical planes. The anisotropy value (A), is the ratio between the light intensities following the equation:
A=(Intensity with horizontal polarizer−Intensity with vertical polarizer)/(Intensity with horizontal polarizer+2* Intensity with vertical polarizer).
The fluorescence anisotropy measurements were performed in 384-well microplates in a volume of 10 μL in binding buffer (PBS, 0.01% Tween-20, pH 7.5) using a Tecan Safire fluorescence polarisation plate reader (Tecan, US) at ex646/em678 nm. The concentration of dye-labelled peptide was held constant (20 nM) and the concentrations of the human or mouse cMet/Fc chimera (R&D Systems) or Semaphorin 6A (R&D Systems) were varied from 0-150 nM. Binding mixtures were equilibrated in the microplate for 10 min at 30° C. The observed change in anisotropy was fit to the equation: […]

HCT-15 tumours = test: In vivo testing in HCT-15 tumour-bearing nude mice, fluorescence imaging through laparoscope; design: species or system BALB c/A nude (Bom) mice; conditions: 1 nmol per animal i.v.; excised tumour slice against normal colon
Source text: 54 Female BALB c/A nude (Bom) mice were used in the study. The use of the animals was approved by the local ethics committee. BALB c/A nude is an inbred immunocompromised mouse strain with a high take rate for human tumours as compared to other nude mice strains. The mice were 4 weeks old upon arrival and with a body weight of approx. 20 grams at the start of the study. The animals were housed in individually ventilated cages (IVC, Scanbur BK) with HEPA filtered air. The animals had ad libitum access to “Rat and Mouse nr. 3 Breeding” diet (Scanbur BK) and tap water acidified by addition of HCl to a molar concentration of 1 mM (pH 3.0).
The colon cancer cell HCT-15 is derived from human colon carcinomas and is reported to express cMet according to Zeng et al [Clin. Exp. Metastasis, 21, 409-417. (2004)]. The cell line was proven to be tumorigenic when inoculated subcutaneously into nude mice [Flatmark et al, Eur. J. Cancer 40, 1593-1598 (2004)]. […]
Imaging was performed through a clinical laparoscope adapted to use a light source to excite the reporter and a filtering system to extract the fluorescence component. […]
Standard exposure time for colon imaging was 10 s. […] The images were visually scored using the standard scoring system employed for receiver operating characteristic analysis.

| Substance | binding to mouse cMet (mouse cMet/Fc chimera) | tumour to normal ratio (HCT-15 tumours) | visual identification of tumour against background (HCT-15 tumours) |
| --- | --- | --- | --- |
| Cys4-16, 6-14; Ac-Ala-Gly-Ser-Cys-Tyr-Cys-Ser-Gly-Pro-Pro-Arg-Phe-Glu-Cys-Trp-Cys-Tyr-Glu-Thr-Glu-Gly-Thr-Gly-Gly-Gly-Lys(Cy5)-NH2 (Ac-AGSCYCSGPPRFECWCYETEGTGGGK(Cy5)-NH2; disulfide 6-14, 4-16) [Compound 3] | no binding | – | – |
| Ac-TGECTCPYWEFRPCECGSYSGAGGGK(ϵ-Cy5**)-NH2 (Ac-TGECTCPYWEFRPCECGSYSGAGGGK(Cy5∗∗)-NH2; cysteine pairing not given here; reading uncertain; also: printed as Ac-TGECTCPYWEFRPCECGSYSGAGGGK(ϵ-Cy5**)-NH2) [Compound 7, negative control] | – | did not discriminate between tumour and background | nothing was discernible against background |
